Measured values reported in ChEMBL document CHEMBL6177951, “Synthesis and anti-MRSA activity of quaternized small molecule antimicrobial peptide mimics based on norharmane” (Eur J Med Chem, 2025).
Values after ≈ are worked out from the molar mass of the structure shown.

Legend:
Type in all cases: functional
[1] = test system: Staphylococcus aureus; assay: Antibacterial activity against Staphylococcus aureus ATCC 25923 assessed as inhibition of bacterial growth incubated for 14 hrs by two-fold serial dilution method
[2] = test system: Staphylococcus aureus; assay: Antibacterial activity against Staphylococcus aureus ATCC 29213 assessed as inhibition of bacterial growth incubated for 14 hrs by two-fold serial dilution method
[3] = test system: Staphylococcus aureus; assay: Antibacterial activity against Staphylococcus aureus CMCC 26003 assessed as inhibition of bacterial growth incubated for 14 hrs by two-fold serial dilution method
[4] = test system: Staphylococcus aureus; assay: Antibacterial activity against methicillin-resistant Staphylococcus aureus ATCC 43300 assessed as inhibition of bacterial growth incubated for 14 hrs by two-fold serial dilution method
[5] = test system: Staphylococcus aureus; assay: Antibacterial activity against methicillin-resistant Staphylococcus aureus ATCC 33591 assessed as inhibition of bacterial growth incubated for 14 hrs by two-fold serial dilution method
[6] = test system: Staphylococcus aureus; assay: Antibacterial activity against methicillin-resistant Staphylococcus aureus clinical isolate M-13 incubated for 14 hrs by two-fold serial dilution method
[7] = test system: Staphylococcus aureus; assay: Antibacterial activity against methicillin-resistant Staphylococcus aureus clinical isolate M-14 incubated for 14 hrs by two-fold serial dilution method
[8] = test system: Staphylococcus aureus; assay: Antibacterial activity against methicillin-resistant Staphylococcus aureus clinical isolate M-15 incubated for 14 hrs by two-fold serial dilution method
[9] = test system: Staphylococcus aureus; assay: Antibacterial activity against methicillin-resistant Staphylococcus aureus clinical isolate M-16 incubated for 14 hrs by two-fold serial dilution method
[10] = test system: Staphylococcus aureus; assay: Antibacterial activity against methicillin-resistant Staphylococcus aureus clinical isolate M-17 incubated for 14 hrs by two-fold serial dilution method
[11] = test system: Staphylococcus aureus; assay: Antibacterial activity against methicillin-resistant Staphylococcus aureus clinical isolate M-18 incubated for 14 hrs by two-fold serial dilution method
[12] = test system: Staphylococcus aureus; assay: Antibacterial activity against methicillin-resistant Staphylococcus aureus clinical isolate M-19 incubated for 14 hrs by two-fold serial dilution method
[13] = test system: Staphylococcus aureus; assay: Antibacterial activity against methicillin-resistant Staphylococcus aureus clinical isolate M-20 incubated for 14 hrs by two-fold serial dilution method
[14] = test system: Staphylococcus aureus; assay: Antibacterial activity against methicillin-resistant Staphylococcus aureus clinical isolate M-21 incubated for 14 hrs by two-fold serial dilution method
[15] = test system: Staphylococcus aureus; assay: Antibacterial activity against methicillin-resistant Staphylococcus aureus clinical isolate M-22 incubated for 14 hrs by two-fold serial dilution method
[16] = test system: Staphylococcus aureus; assay: Antibacterial activity against methicillin-resistant Staphylococcus aureus clinical isolate M-23 incubated for 14 hrs by two-fold serial dilution method

With c1ccc2c(c1)c1ccncc1n2CCCCCCCCCCCCn1c2ccccc2c2ccncc21 the MIC [1] was greater than 128 µg/mL, the MIC [2] was greater than 128 µg/mL and the MIC [3] was greater than 128 µg/mL. For the same molecule, the MIC [4] was greater than 128 µg/mL and the MIC [5] was greater than 128 µg/mL.

Work on CCCC[n+]1ccc2c3ccccc3n(CCN(CC)CC)c2c1.[Br-] yielded an MIC [1] of 16 µg/mL, an MIC [2] of 128 µg/mL and an MIC [3] of 16 µg/mL. The MIC [4] was 64 µg/mL and the MIC [5] was 64 µg/mL.

With CN(C)CCn1c2ccccc2c2ccncc21 the MIC [1] was 64 µg/mL (≈ 267 µM), the MIC [2] was 64 µg/mL (≈ 267 µM) and the MIC [3] was greater than 128 µg/mL. It also gave an MIC [4] greater than 128 µg/mL and an MIC [5] of 128 µg/mL (≈ 535 µM).

In the case of C[n+]1ccc2c3ccccc3n(CCCCCCCCCn3c4ccccc4c4cc[n+](C)cc43)c2c1.[I-].[I-], the MIC [1] is reported as 4 µg/mL, the MIC [2] is reported as 2 µg/mL and the MIC [3] is reported as 0.5 µg/mL. It also gave an MIC [4] of 4 µg/mL, an MIC [5] of 0.5 µg/mL and an MIC [6] of 1 µg/mL. The MIC [7] was 1 µg/mL, the MIC [8] was 4 µg/mL and the MIC [9] was 2 µg/mL. It also gave an MIC [10] of 4 µg/mL, an MIC [11] of 4 µg/mL and an MIC [12] of 4 µg/mL. The MIC [13] was 2 µg/mL, the MIC [14] was 4 µg/mL and the MIC [15] was 2 µg/mL. It also gave an MIC [16] of 4 µg/mL.

For CCC[n+]1ccc2c3ccccc3n(CCN(CC)CC)c2c1.[Br-], the MIC [1] was 32 µg/mL, the MIC [2] was greater than 128 µg/mL and the MIC [3] was 32 µg/mL. For the same molecule, the MIC [4] was 128 µg/mL and the MIC [5] was 128 µg/mL.

Molecule CCCCC[n+]1ccc2c3ccccc3n(CC[N+](C)(C)CCCCC)c2c1.[Br-].[Br-] has an MIC [1] of 128 µg/mL, an MIC [2] greater than 128 µg/mL and an MIC [3] greater than 128 µg/mL. It also gave an MIC [4] greater than 128 µg/mL and an MIC [5] greater than 128 µg/mL.

For c1ccc2c(c1)[nH]c1cnccc12 [NORHARMANE], the MIC [1] was 32 µg/mL (≈ 190 µM), the MIC [2] was 64 µg/mL (≈ 381 µM) and the MIC [3] was 64 µg/mL (≈ 381 µM). It also gave an MIC [4] of 64 µg/mL (≈ 381 µM) and an MIC [5] of 64 µg/mL (≈ 381 µM).

In the case of CCN(CC)CCn1c2ccccc2c2ccncc21, the MIC [1] is reported as 64 µg/mL (≈ 239 µM), the MIC [2] is reported as 128 µg/mL (≈ 479 µM) and the MIC [3] is reported as 128 µg/mL (≈ 479 µM). It also gave an MIC [4] of 128 µg/mL (≈ 479 µM) and an MIC [5] of 128 µg/mL (≈ 479 µM).

Molecule CCN(CC)CCn1c2ccccc2c2cc[n+](CC)cc21.[Br-] has an MIC [1] of 32 µg/mL, an MIC [2] greater than 128 µg/mL and an MIC [3] of 32 µg/mL. It also gave an MIC [4] greater than 128 µg/mL and an MIC [5] of 128 µg/mL.

Molecule CC[n+]1ccc2c3ccccc3n(CC[N+](CC)(CC)CC)c2c1.[Br-].[Br-] has an MIC [1] of 128 µg/mL, an MIC [2] greater than 128 µg/mL and an MIC [3] greater than 128 µg/mL. It also gave an MIC [4] greater than 128 µg/mL and an MIC [5] greater than 128 µg/mL.

In the case of c1ccc2c(c1)c1ccncc1n2CCCCCCCCCCCn1c2ccccc2c2ccncc21, the MIC [1] is reported as greater than 128 µg/mL, the MIC [2] is reported as greater than 128 µg/mL and the MIC [3] is reported as greater than 128 µg/mL. It also gave an MIC [4] greater than 128 µg/mL and an MIC [5] greater than 128 µg/mL.

In the case of c1ccc2c(c1)c1ccncc1n2CCCCCCCCCCn1c2ccccc2c2ccncc21, the MIC [1] is reported as greater than 128 µg/mL, the MIC [2] is reported as greater than 128 µg/mL and the MIC [3] is reported as greater than 128 µg/mL. For the same molecule, the MIC [4] was greater than 128 µg/mL and the MIC [5] was greater than 128 µg/mL.
